# Measured values as given in patent US11591300B2, “Oxazole containing compounds as activators of IDO1 and AhR” (The Brigham and Women's Hospital, Inc., priority 2017, dated 2023).
# Legend:
# MODE-K cells [1] = test: CD1d-restricted IL-10 production in MODE-K:NKT cell hybridoma co-culture; assay type: cell-based, mouse; settings: for effect of the supplement on IEC responses to oxazolone (CD1d-restricted IL-10 production): tryptophan-deficient media, oxazolone stimulation
# MODE-K cells [2] = test: Relative transcript abundance of target genes in MODE-K cells conditioned with compounds; settings: for Mttp transcripts / Ido1 transcripts: MODE-K cells conditioned with compound, normalized to β-actin
# Description: 4-ethoxymethylene-2-phenyl-2-oxazol-5-one, (referred to as oxazolone, FIG. 1A) has been widely utilized in models of contact hypersensitivity and when applied to the mucosa has been proposed to cause colitis through its properties as a hapten (Gorbachev and Fairchild 2001). However to date there is limited evidence for hapten-specific antibody production or responses following topical oxazolone sensitization or hapten modified autologous proteins or luminal antigens identified at mucosal sites (Singleton et al. 2016, Yanaba et al. 2008, Wirtz et al. 2007). […] It was then determined whether oxazolone could affect the expression of these transcripts in the intestinal epithelium in a cell intrinsic manner by directly stimulating an immortalized intestinal epithelial cell line (IEC) derived from mouse small intestine, MODE-K, with oxazolone.
# To test this, a systematic in vitro system was devised to assess transcriptional and CD1d-restricted responses in IECs in response to stimulation with dietary OxC structures, including 2,4,5-trimethyl-2,5-dihydro-1,3-oxazole (referred to as TMO, FIG. 1A) found in coffee, peanuts, meats and utilized as a food additive, which lacks the 2-phenyl ring, 5-ketone, and 4-ethoxymethylene present in oxazolone (Vitzthum et al. 1975, Stoffesima et al. 1968, Lee et al. 1981, Chang et al. 1968, Ho and Hartman 1968).
# [3] = biological target: T1, aryl hydrocarbon receptor (AhR) (Mus musculus, UniProt P30561); test: AhR firefly luciferase reporter in IECs; assay type: cell-based; settings: compared to vehicle or 1,2,4-trimethylcyclopentane
# T1 construct: IECs were transfected with an AhR firefly luciferase reporter; endogenous in cells; host or cells: MODE-K (mouse intestinal epithelial cell line)
# T1 sequence (P30561 10-848): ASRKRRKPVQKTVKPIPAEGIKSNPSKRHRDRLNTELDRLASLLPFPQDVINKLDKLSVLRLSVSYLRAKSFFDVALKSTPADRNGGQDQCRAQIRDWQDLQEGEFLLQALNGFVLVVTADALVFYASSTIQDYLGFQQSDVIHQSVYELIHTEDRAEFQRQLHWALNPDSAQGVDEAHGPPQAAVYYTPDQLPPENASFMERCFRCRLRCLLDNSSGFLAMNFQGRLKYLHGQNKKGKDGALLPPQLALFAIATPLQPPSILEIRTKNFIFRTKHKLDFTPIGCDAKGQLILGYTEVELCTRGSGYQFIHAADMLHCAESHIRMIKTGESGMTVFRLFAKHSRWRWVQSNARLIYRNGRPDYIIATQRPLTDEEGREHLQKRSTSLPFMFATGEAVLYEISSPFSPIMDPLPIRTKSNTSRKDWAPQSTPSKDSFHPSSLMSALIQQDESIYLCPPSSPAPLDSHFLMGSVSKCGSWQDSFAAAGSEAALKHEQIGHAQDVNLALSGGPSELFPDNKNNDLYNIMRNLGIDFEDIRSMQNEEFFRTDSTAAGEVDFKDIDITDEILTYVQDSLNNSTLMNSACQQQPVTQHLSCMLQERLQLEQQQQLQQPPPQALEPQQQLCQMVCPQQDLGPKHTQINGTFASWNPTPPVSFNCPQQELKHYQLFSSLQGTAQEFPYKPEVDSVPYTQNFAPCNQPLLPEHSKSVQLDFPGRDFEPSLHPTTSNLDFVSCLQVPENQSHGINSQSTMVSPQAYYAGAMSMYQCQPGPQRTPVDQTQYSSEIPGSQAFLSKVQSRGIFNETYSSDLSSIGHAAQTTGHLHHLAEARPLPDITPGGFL
# primary hepatocytes = test: IL-10 production from primary hepatocytes co-cultured with 24.7 iNKT hybridoma; settings: response to iNKT cells in the presence of α-GC
# recombinant IDO1 = recombinant IDO1 (Homo sapiens, UniProt P14902); test: Recombinant IDO1 conversion of L-tryptophan to formyl-kyneurenine; assay type: biochemical; settings: compared to control (TMC) or vehicle
# recombinant IDO1, sequence (P14902 whole entry, species assumed): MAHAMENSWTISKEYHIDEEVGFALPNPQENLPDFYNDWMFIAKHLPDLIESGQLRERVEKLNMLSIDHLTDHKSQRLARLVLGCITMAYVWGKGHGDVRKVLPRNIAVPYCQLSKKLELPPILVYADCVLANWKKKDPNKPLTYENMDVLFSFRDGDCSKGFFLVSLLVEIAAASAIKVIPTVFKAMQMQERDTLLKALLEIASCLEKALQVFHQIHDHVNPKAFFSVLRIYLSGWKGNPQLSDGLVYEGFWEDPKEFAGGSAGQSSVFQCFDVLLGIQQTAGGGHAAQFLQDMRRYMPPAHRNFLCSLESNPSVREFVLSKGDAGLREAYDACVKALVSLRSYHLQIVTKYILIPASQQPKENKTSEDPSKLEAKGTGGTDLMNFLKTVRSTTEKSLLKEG
# MODE-K cells [4] = test: Surface CD1d loaded with α-GC (L363 antibody staining) in MODE-K cells; assay type: cell-based, mouse
# Description: In light of the decreased MTP expression observed in oxazolone treated IECs (FIG. 1B) and given that MTP loss alters the ability of CD1d to acquire exogenous antigens, such as α-GC, and CD1d elicited IL-10 responses by epithelial cells (Dougan et al. 2005, Dougan et al. 2007, Zeissig et al 2017, Sagiv et al. 2007, Brozovic et al. 2004, Olszak et al. 2014), it was investigated whether CD1d expression and lipid loading on oxazolone conditioned IECs.
# C57Bl/6 mice = test: Intra-rectal administration, colonic inflammation in vivo; parameters: species or system mouse
# Protocol: It was tested whether a dietary sourced minimal oxazole structure was sufficient to induce intestinal inflammation in vivo. […] To confirm this, the ability of oxazolone skin pre-sensitization to affect the responses to rectal challenge with TMO and vice-versa (FIG. 9D).
# Next, it was tested whether B17 microcin derivatives could induce intestinal inflammation in vivo. Therefore, adequate quantities of a minimal B17 derivative (termed frag-oz, FIG. 2D) were synthesized to perform in vivo experiments and challenged animals via intra-rectal administration. […] These studies identify an oxazole containing microbial mimic that promotes CD1d-dependent intestinal inflammation independent of its classical anti-microbial activity.
# These studies reveal a novel role for epithelial derived AhR signals in promoting mucosal inflammation when exposed to OxC.
# [5] = Wambaugh et al. 2014; cited from earlier work
# IECs [6] = test: LC-MS of deuterated L-trp (D5-Trp) metabolites in IEC lysates; assay type: cell-based; settings: within 6 hours of exposure
# Protocol: IDO1 is a rate-limiting enzyme involved in tryptophan catabolism that generates formyl-kyneurenine which can be further metabolized into a variety of AhR agonists (Higuchi and Hayaishi Arch Biochem Biophys 1967, Nguyen and Bradfield 2008, Zelante et al. 2014). […] To specifically identify these tryptophan derived products, IECs were cultured with deuterated L-trp (D5-Trp) and performed high performance liquid chromatography mass spectrometry (LC-MS) on lysates stimulated with oxazolone, TMO, frag-oz or TMC control (FIG. 5C). […] Taken together these latter studies are consistent with a model in which exposure of IECs to oxazole containing compounds leads to the activation of IDO1 and generation of tryptophan-derived metabolites that induce the AhR pathway to downregulate CD1d-restricted responses associated with the production of IL-10 (FIG. 6).
# IECs [7] = test: In vitro system to assess transcriptional and CD1d-restricted responses in IECs (FIG. 13 summary); assay type: cell-based
# AhR = biological target: T2, AhR (Homo sapiens, UniProt P35869); settings: Wambaugh et al. 2014, Dierickx 2004; cited from earlier work
# T2 sequence (P35869 11-848): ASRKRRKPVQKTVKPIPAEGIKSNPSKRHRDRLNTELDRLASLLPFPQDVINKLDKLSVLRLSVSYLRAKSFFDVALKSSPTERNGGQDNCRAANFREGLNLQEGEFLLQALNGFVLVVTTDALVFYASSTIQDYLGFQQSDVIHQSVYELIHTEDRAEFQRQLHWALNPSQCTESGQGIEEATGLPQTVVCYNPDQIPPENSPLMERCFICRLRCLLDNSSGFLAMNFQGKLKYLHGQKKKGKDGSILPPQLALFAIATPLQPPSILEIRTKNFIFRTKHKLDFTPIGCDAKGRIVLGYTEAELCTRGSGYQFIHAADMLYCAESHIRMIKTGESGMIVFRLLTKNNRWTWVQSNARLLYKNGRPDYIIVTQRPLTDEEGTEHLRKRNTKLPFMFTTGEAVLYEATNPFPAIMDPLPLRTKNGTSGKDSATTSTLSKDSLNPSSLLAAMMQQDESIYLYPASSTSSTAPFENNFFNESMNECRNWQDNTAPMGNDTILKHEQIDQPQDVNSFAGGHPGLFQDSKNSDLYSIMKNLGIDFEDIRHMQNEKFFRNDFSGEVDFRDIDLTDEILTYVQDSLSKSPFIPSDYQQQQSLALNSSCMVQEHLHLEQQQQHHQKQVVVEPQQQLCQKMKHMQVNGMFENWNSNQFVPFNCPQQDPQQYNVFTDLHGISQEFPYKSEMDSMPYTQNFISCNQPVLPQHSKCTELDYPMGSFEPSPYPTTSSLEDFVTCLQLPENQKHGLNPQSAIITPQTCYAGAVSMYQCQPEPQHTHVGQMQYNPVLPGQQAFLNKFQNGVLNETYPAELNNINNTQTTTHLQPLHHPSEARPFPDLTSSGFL
# [8] = supplement alone or in conjunction with TMC stimulation
# [9] = MODE-K pre-conditioned with compound, loaded with α-GC, co-culture with 24.7 iNKT hybridoma
# [10] = IEC enriched colonic fractions after intra-rectal administration
# [11] = intra-rectal administration, wildtype
structure (smiles),measurement,setting,value
"Cn1cc(C[C@@H](N)C(=O)O)c2ccccc21 (racemic) [DL-methyl tryptophan, reference compound]",effect of the supplement on IEC responses to oxazolone (CD1d-restricted IL-10 production),MODE-K cells [1],did not restore suppression
"N[C@@H](Cc1c[nH]c2ccccc12)C(=O)O [L-Trp, L-tryptophan, reference compound]",CD1d-restricted IL-10 production,MODE-K cells [1]; [8],had no effect
same,effect of the supplement on IEC responses to oxazolone (CD1d-restricted IL-10 production),MODE-K cells [1],restored IEC responses to oxazolone
"COC(=O)c1csc(C(=O)c2c[nH]c3ccccc23)n1 [ITE, 2-(H-Indol-3-carbonyl)-4-thiazolecarboxylic acid methyl ester, reference compound]",Mttp transcripts,MODE-K cells [2],did not modulate
same,CD1d-restricted IL-10 production,MODE-K cells [1]; [9],did not modulate
"O=C(O)c1cc(=O)c2ccccc2[nH]1 [kyneurenic acid, reference compound]",CD1d-restricted IL-10 production,MODE-K cells [1]; [8],had no effect
"CC1=NC(C)OC1C (stereo not shown) [TMO, 2,4,5-trimethyl-2,5-dihydro-1,3-oxazole]",AhR transcriptional activity,[3],induced robust AhR transcriptional activity
same,compound induced inhibition of IL-10 production in hepatocytes from Ahr−/− mice,primary hepatocytes,resistance
same,ability of IDO1 to convert tryptophan to formyl-kyneurenine,recombinant IDO1,enhanced
same,compound induced reduction of cell surface CD1d lipid antigen loading when AhR expression is silenced,MODE-K cells [4]; AhR siRNA,reversed
same,loading of α-GC on CD1d at the cell surface (L363 staining),MODE-K cells [4]; MODE-K cells conditioned with compound,decreased cell surface staining
same,Cyp1a1 transcripts in IEC in vivo,C57Bl/6 mice; [10],induction of cyp1a1
same,Mttp transcripts in IEC in vivo,C57Bl/6 mice; [10],downregulation of Mttp
same,"Th1 and Th2 cytokines (IL-13, IFN-γ) from colon explants",C57Bl/6 mice; [11],production of Th2 and Th1 cytokines including IL-13 and IFN-γ
same,colon length,C57Bl/6 mice; [11],colon shortening
same,histological pathology of the colon,C57Bl/6 mice; [11],"histological pathology characterized by superficial inflammation of the gut wall, neutrophil accumulation and ulceration of the epithelial layer of the colon"
same,weight loss,C57Bl/6 mice; [11],increased weight loss
same,"clinical symptoms, pathology, inflammation in CD1d-deficient animals","C57Bl/6 mice; intra-rectal challenge, CD1d-deficient (KO) vs WT",no evidence of clinical symptoms or pathology
same,effect of skin pre-sensitization with the other compound (oxazolone or TMO) on rectal responses,C57Bl/6 mice; topical sensitization followed by intra-rectal challenge,did not affect
same,Ido1 transcripts,MODE-K cells [2],induced expression of these genes in vitro and in vivo
same,Mttp transcripts,MODE-K cells [2],suppressed
same,detection in human urine,[5],detected in human urine
same,metabolite that D5-Trp was further metabolized to upon stimulation,IECs [6],xanthurenic acid
same,compound induced inhibition of CD1d-restricted IL-10 production when AhR expression is silenced,"MODE-K cells [1]; AhR siRNA, IEC:iNKT cell co-cultures",reversed
same,CD1d-restricted IL-10 production,MODE-K cells [1]; IECs cultured in tryptophan-deficient media,no longer attenuated
same,CD1d-restricted IL-10 production,MODE-K cells [1]; [9],limited
same,IL-10 production,MODE-K cells [1]; tryptophan-deficient conditions supplemented with kyneurenic acid,decreased IL-10 production
same,decrease of IL-10 production when AhR was silenced,"MODE-K cells [1]; tryptophan-deficient conditions supplemented with kyneurenic acid, AhR siRNA",reduced when AhR was silenced
same,CD1d-restricted IL-10 production,MODE-K cells [1]; tryptophan-deficient media supplemented with exogenous L-tryptophan,attenuation of CD1d-restricted IL-10 production
C=CC1(C)OC(=O)N(c2cc(Cl)cc(Cl)c2)C1=O (stereo not shown) [vinclozolin],Cyp1a1 transcripts,MODE-K cells [2],induced expression of these genes in vitro and in vivo
same,Ido1 transcripts,MODE-K cells [2],induced expression of these genes in vitro and in vivo
same,transcriptional and CD1d-restricted epithelial responses relative to oxazolone stimulation,IECs [7],phenocopied
same,AhR activation,AhR,AhR activator
"CC1=NCCC1 [1-MP, 2-methyl-1-pyrroline, reference compound]",Cyp1a1 transcripts,MODE-K cells [2],did not elicit any transcriptional changes
same,Mttp transcripts,MODE-K cells [2],did not elicit any transcriptional changes
"CC1CC(C)C(C)C1 (stereo not shown) [TMC, 1,2,4-trimethyl cyclopentane, reference compound]",Cyp1a1 transcripts,MODE-K cells [2],did not elicit any transcriptional changes
same,Mttp transcripts,MODE-K cells [2],did not elicit any transcriptional changes
